Tests used:
[1] = Inhibition of recombinant His-tagged HIF-1 expressed in human U2OS cells measured after 90 mins by ELISA assay; format: cell-based
[2] = Inhibition of HIF-1alpha / HIF-1beta (unknown origin) protein-protein interaction by ELISA assay; parameters: species or system Homo sapiens
[3] = Inhibition of TEV protease using Cy5-ENLYFQGK(QSY21)-NH2 as substrate incubated for 1 hr by fluorescence based analysis; parameters: species or system Tobacco etch virus
[4] = Antiproliferative activity against human LNCaP-95 cells assessed as cell growth inhibition measured after 24 hrs by CellTiter-Glo assay; format: functional, cell-based; settings: LNCaP-95, 24 h
[5] = Antiproliferative activity against human LNCaP-abl cells assessed as cell growth inhibition measured after 24 hrs by CellTiter-Glo assay; format: functional, cell-based
[6] = Inhibition of FphF (unknown origin) using Cy5-ENLYFQGK(QSY21)-NH2 as substrate incubated for 1 hr by fluorescence based analysis; parameters: species or system Homo sapiens
[7] = Binding affinity to Carbonic anhydrase (unknown origin) assessed as dissociation constant by isothermal titration calorimetry; parameters: species or system Homo sapiens
[8] = Inhibition of NDM-1 (unknown origin); parameters: species or system Bacteria

Question: Which IC50 [1] does the source give for CC(C)C[C@@H]1NC(=O)[C@H](CS)NC(=O)[C@H](Cc2ccc(O)cc2)NC(=O)[C@H](C(C)C)NC(=O)[C@H](Cc2ccccc2)NC(=O)[C@H](CC(C)C)NC1=O here?
Answer: The IC50 was 19000 nM.

Question: What about the IC50 [2] of the same compound?
Answer: The IC50 was 1300 nM.

Question: With CSCC[C@@H]1NC(=O)[C@H](Cc2ccc(O)cc2)NC(=O)[C@@H](NC(=O)[C@H](C)N)CSC/C(=N\OCC(=O)NC/C=C/S(C)(=O)=O)CSC[C@@H](C(=O)NCC(=O)O)NC(=O)[C@H](CC(C)C)NC(=O)[C@H](Cc2ccc(O)cc2)NC(=O)[C@H](CC(C)C)NC(=O)[C@@H]2CCCN2C(=O)[C@H](CCC(=O)O)NC(=O)[C@H](CCC(N)=O)NC1=O as the compound, how does the IC50 [3] read?
Answer: The IC50 was 730 nM.

Question: Which results are given for COc1ccc([C@H](C)N(CC(=O)N(CCCOC(C)C)CC(=O)N(CC(=O)N(CCc2ccccc2Oc2ccccc2)CC(=O)O)c2cc(OC)cc(OC)c2)C(=O)CN(C(=O)[C@@H](C)N)[C@@H](C)c2ccc(OC)cc2)cc1?
Answer: IC50 [4]: > 20000 nM; IC50 [5]: 7100 nM

Question: With CSCC[C@@H]1NC(=O)[C@H](Cc2c[nH]c3ccccc23)NC(=O)[C@H](CCCNC(=N)N)NC(=O)[C@H](Cc2c[nH]c3ccccc23)NC(=O)[C@H](CCCNC(=N)N)NC(=O)[C@H](C)NC(=O)[C@@H](NC(=O)[C@@H](N)C(C)C)CSC/C(=N/OCC(=O)CP(=O)(Oc2ccccc2)Oc2ccccc2)CSC[C@@H](C(=O)NCC(=O)O)NC(=O)[C@@H]2CCCN2C1=O as the compound, how does the IC50 [6] read?
Answer: The IC50 was 647 nM.

Question: Which IC50 [4] does the source give for COc1ccc([C@H](C)N2CC(=O)N(CCCOC(C)C)CC(=O)N(c3cc(OC)cc(OC)c3)CC(=O)N(CCc3ccccc3Oc3ccccc3)CC(=O)N[C@H](C)C(=O)N([C@@H](C)c3ccc(OC)cc3)CC2=O)cc1 here?
Answer: The IC50 was 782 nM.

Question: What about the IC50 [5] of the same compound?
Answer: The IC50 was 195 nM.

Question: For NNc1ccc(S(N)(=O)=O)cc1, which Kd [7] is on record?
Answer: The Kd was 50000 nM.

Question: For C[C@@H](CS)C(=O)N1CCC[C@@H]1C(=O)O, which IC50 [8] is on record?
Answer: Its IC50 is 59700 nM.

From ChEMBL document CHEMBL5108037, “Cyclic Peptide Screening Methods for Preclinical Drug Discovery” (J Med Chem, 2022)
